# Test results: patent publication US20120201902A1, “ANTIMICROBIAL/PRESERVATIVE COMPOSITIONS COMPRISING BOTANICALS” (The Trustees of Columbia University in the City of New York, priority 2009, published 2012)
# Columns and labels:
# S. aureus [1] = assay: In vitro rapid (15 seconds) antibacterial activity (Method A), S. aureus; assay type: cell-based
# Protocol: Method A: 0.8 ml of a test solution was mixed with 0.1 ml of bacterial culture (10^8 cfu/ml) and 0.1 ml of bovine serum and vortexed for 15 seconds. 9 ml of drug neutralizing Fluid (DNF) was then added and serially diluted with DNF and plated on trypticase soy agar (TSA) plates. The plates were incubated for 24-48 hours at 37° C., and colony counts were determined. For a control, a gel base was used alone. The gel base (Base 26) contains 0.2% hydroxymethylpropyl cellulose and 0.2% polyquaternium10, and 0.5% 1,3 propanediol in water.
# The present example evaluates rapid (15 seconds) antibacterial activity of various agents, alone and in combination, in an aqueous gel base (Base 26) using S. aureus as the test organism. One method of testing (Method A) uses 0.8 ml of the test solution mixed with 0.1 ml of bacterial culture (10^8 cfu/ml) and 0.1 ml of Bovine serum. The solution is vortexed for 15 seconds. 9.0 ml of drug neutralizing Fluid (DNF) is then added and then serially diluted with DNF and plated on TSA plates. Plates are incubated for 24-48 hours at 37° C. and colony counts were determined. For A control, the base was used alone.
# Aspergillus niger = assay: Preservative efficacy in cream (Method 1), Aspergillus niger; assay type: cell-based; conditions: for efficacy of solvent added to GSE, lemongrass oil and lactic acid: against A. niger
# C. albicans [2] = assay: Preservative efficacy in cream (Method 1), C. albicans; assay type: cell-based, Candida albicans; conditions: for Efficacy (log10 reduction from control growth) C. albicans: Table 67
# S. aureus [3] = assay: Synergistic antibacterial activity of benzyl alcohol and citrus fruit extract in proteinaceous media (1 minute); assay type: cell-based; conditions: 2.0 % w/w, media 50% TSB and 50% bovine serum
# Protocol: Citrus fruit extract was obtained from PL Thomas (BiosecurF440D organic citrus fruit extract concentrate). The following concentrations of compounds were added to S. aureus culture (10^8 cfu/ml of media containing 50% TSB and 50% bovine serum). After 1 minute, drug neutralizing fluid (DNF) was added and mixed. The samples were then serially diluted with DNF and plated in TSA plate. The plates were incubated for 24-48 hours at 37° C. and colony counts were determined.
# S. aureus [4] = conditions: erythromycin, gentamicin, vancomycin, ciproflaxin, clindamycin, tetracycline; cited from earlier work
# C. albicans [5] = assay: Efficacy of antifungal creams in pig skin method (Method D), loosely and tightly adhered organism; assay type: cell-based, Candida albicans; conditions: conclusion of Example 31 (Methods C, D, E)
# Protocol: Method D: Evaluation of efficacy in pig skin method (test organism C. albicans). […] At the end of incubation, DNF (drug neutralizing fluid) was added to each piece, mixed to remove the cream and loosely adhered bacteria on the skin. Loosely adhered organism: The fluid containing the cream was removed, serially diluted with DNF and aliquots plated on TSA and incubated for 24-48 hours and colonies were counted. Tightly adhered organism: DNF was added to the rinsed pigskin and sonicated for 20 minutes to remove the tightly adhered bacteria. The fluid after sonication was serially diluted, plated on TSA and, incubate for 24-48 hours and colony counts were determined.
# S. aureus [6] = assay: In vitro rapid (15 seconds) efficacy of hand disinfectant soap (Method A with 10^9 organism); assay type: cell-based
# From the text: The method of testing is same method as described above as Method A, however using 10^9 organism instead 10^8.
# S. aureus [7] = assay: In vitro rapid (15 second) efficacy of surface disinfectants; assay type: cell-based; conditions: surfactant base
# Protocol: The following ingredients were added in a surfactant base containing water and alkyl polyglycoside surfactant (Glucopon) (Table 125).
# Table 126 provides the dadta for an in vitro rapid (15 second) antibacterial efficacy of surface disinfectants against S. aureus.
# The following ingredients were added in a surfactant base containing water and alkyl polyglycoside surfactant (Glucopon) (Table 127).
# Table 128 provides the results from an in vitro rapid (15 second) antibacterial efficacy of surface disinfectants against S. aureus.
# [8] = cited from earlier work
# [9] = Table 106, 3.0 % w/w in Base 26, 15 seconds
# [10] = Table 106, 0.5 % w/w in Base 26, 15 seconds
# [11] = Table 106, 2.0 % w/w in Base 26, 15 seconds
# [12] = Table 107, 2.0 % w/w, 15 seconds
# [13] = Table 106, 0.2 % w/w in Base 26, 15 seconds
compound,measurement,setting,value
"OCCCO [1,3 propanediol]",log10 reduction,S. aureus [1]; [9],0.2 log10
same,"synergistic efficacy of benzyl alcohol and GSE, with and without 1,3 propanediol","Aspergillus niger; 1-2% preservative in hydrophilic cream base, pH 4.5-5.0, tested against Aspergillus niger and C. albicans",enhances the activity
"OCc1ccccc1 [Benzyl alcohol, benzyl alcohol]",log10 reduction,S. aureus [1]; [10],0.13 log10
same,log10 reduction,"S. aureus [1]; Table 106, 1.0 % w/w in Base 26, 15 seconds",0.14 log10
same,log10 reduction,S. aureus [1]; [11],0.18 log10
same,log10 reduction,S. aureus [1]; [9],0.2 log10
same,log10 reduction,S. aureus [1]; [12],0.12 log10
same,synergistic activity with citric and lactic acid,"S. aureus [1]; benzyl alcohol at 1% and more than 1%, Base 26, 15 seconds",synergistic activity
same,activity along with fruit acid without any botanical extracts,"S. aureus [1]; benzyl alcohol at higher concentrations, 15 seconds",effective
same,Efficacy (log10 reduction from control growth) C. albicans,C. albicans [2]; 0.5 % w/w in cream,1.0 log10
same,Efficacy (log10 reduction from control growth) C. albicans,C. albicans [2]; 1.0 % w/w in cream,2.7 log10
same,"efficacy of solvent added to GSE, lemongrass oil and lactic acid",C. albicans [2]; against C. albicans,higher efficacy
same,synergistic activity with Zemea,"C. albicans [2]; higher concentrations of benzyl alcohol, against C. albicans",synergistic activity
same,"synergistic activity with the combination of GSE, lemongrass oil, and lactic acid","Aspergillus niger; Example 5, organism not given",synergistic activity
same,Efficacy (log10 reduction from control growth) A. niger,"Aspergillus niger; Table 67, 0.5 % w/w in cream",1.0 log10
same,Efficacy (log10 reduction from control growth) A. niger,"Aspergillus niger; Table 67, 1.0 % w/w in cream",1.9 log10
same,"efficacy of solvent added to GSE, lemongrass oil and lactic acid",Aspergillus niger,higher efficacy
same,Antibacterial activity against S. Aureus (10^8 CFU/ml) log10 reduction,S. aureus [3],0.1 log10
N=C(NCCCCCCNC(=N)NC(=N)Nc1ccc(Cl)cc1)NC(=N)Nc1ccc(Cl)cc1.O=C(O)[C@H](O)[C@@H](O)[C@H](O)[C@H](O)CO.O=C(O)[C@H](O)[C@@H](O)[C@H](O)[C@H](O)CO [Chlorhexidine gluconate],log10 reduction,S. aureus [1]; [10],2.4 log10
N=C(NCCCCCCNC(=N)NC(=N)Nc1ccc(Cl)cc1)NC(=N)Nc1ccc(Cl)cc1.O=C(O)[C@H](O)[C@@H](O)[C@H](O)[C@H](O)CO.O=C(O)[C@H](O)[C@@H](O)[C@H](O)[C@H](O)CO [Chlorhexidine gluconte],log10 reduction,S. aureus [1]; [13],1.43 log10
O=C(O)CC(O)(CC(=O)O)C(=O)O [Citric acid],log10 reduction,S. aureus [1]; [13],0.1 log10
OCc1ccccc1 [Preservative 2],Efficacy (log10 reduction from control growth) A. niger,"Aspergillus niger; Table 59, preservative in hydrophilic cream base, pH 4.5-5.0, benzyl alcohol (natural), GSE, Zemea, control growth 1 × 10^4-5 × 10^4",0.98 log10
"CCCCC(CC)COCC(O)CO (centres unmarked) [Sensiva, Octoxyglycerin]","efficacy of solvent added to GSE, lemongrass oil and lactic acid",C. albicans [2]; against C. albicans,effective against C. albicans
same,"efficacy of solvent added to GSE, lemongrass oil and lactic acid",Aspergillus niger,not against A. niger
OCCCO [Zemea ®],Efficacy (log10 reduction from control growth) C. albicans,C. albicans [2]; 0.5 % w/w in cream,0.5 log10
same,Efficacy (log10 reduction from control growth) A. niger,"Aspergillus niger; Table 67, 0.5 % w/w in cream",0.85 log10
CC(C)=CCC/C(C)=C/CC1CCCC1=O (centres unmarked) [apritone],susceptibility of S. aureus to antibiotics,S. aureus [4],enhanced the susceptibility
O=C1O[C@H]([C@@H](O)CO)C(O)=C1O [ascorbic acid],synergistic activity of organic acids with benzyl alcohol,S. aureus [1],not effective
same,log10 reduction,S. aureus [1]; [12],0.1 log10
O=C(O)c1ccccc1 [benzoic acid],synergistic activity of organic acids with benzyl alcohol,S. aureus [1],synergistic activity
same,log10 reduction,S. aureus [1]; [12],0.1 log10
CC(C)=CCC[C@](C)(O)C1CC=C(C)CC1 (some centres unmarked) [bisabolol],susceptibility of S. aureus to antibiotics,S. aureus [4],enhanced the susceptibility
"[H]/N=C(\N/C(=N/[H])NCCCCCCNC(=N)NC(=N)Nc1ccc(Cl)cc1)Nc1ccc(Cl)cc1 [chlorhexidine, reference compound]",synergistic activity with benzyl alcohol and fruit acids,"S. aureus [1]; Base 26, 15 seconds",synergistic activity
CC(C)=CCCC(C)=CCCC(C)=CCO [farnesol],susceptibility of S. aureus to antibiotics,S. aureus [4],enhanced the susceptibility
CC(O)C(=O)O (centres unmarked) [lactic acid],synergistic activity of organic acids with benzyl alcohol,S. aureus [1],synergistic activity
same,log10 reduction,S. aureus [1]; [13],0.1 log10
same,log10 reduction,S. aureus [1]; [11],0.11 log10
same,log10 reduction,S. aureus [1]; [12],0.11 log10
Clc1ccc(COC(Cn2ccnc2)c2ccc(Cl)cc2Cl)c(Cl)c1 (centres unmarked) [miconazole],"antifungal activity with synergistic combination of benzyl alcohol, fruit acid, biguanide and benzalkonium chloride",C. albicans [5],significantly enhanced
C=CC(C)(O)CCC=C(C)CCC=C(C)C (centres unmarked) [nerolidol],susceptibility of S. aureus to antibiotics,S. aureus [4],enhanced the susceptibility
Oc1cc(Cl)ccc1Oc1ccc(Cl)cc1Cl [triclosan],"synergistic action with BPC (benzyl alcohol, propanediol, citric acid)",S. aureus [6],synergistic action
(polyiminoimidocarbonyliminoimidocarbonyl-iminohexamethylene)hydro-chloride [Vantocil],synergistic activity with benzyl alcohol and fruit acids,S. aureus [7],synergistic activity
same,synergistic activity with benzyl alcohol and lactic acid,S. aureus [7],synergistic activity
benzalkonium chloride [reference compound],"synergistic action with BPC (benzyl alcohol, propanediol, citric acid)",S. aureus [6],synergistic action
same,synergistic activity with benzyl alcohol and fruit acids,"S. aureus [1]; Base 26, 15 seconds",synergistic activity
same,log10 reduction,"S. aureus [1]; Table 106, 0.1 % w/w in Base 26, 15 seconds",2.7 log10
zinc picolinate,water solubility (in words),[8],moderately water soluble
